Values quoted from earlier work, collected in patent US10280177B2 (ALFASIGMA S.P.A., priority 2006, dated 2019).

Details: in vivo

Compound: CO[C@H]1/C=C/O[C@@]2(C)Oc3c(C)c(O)c4c(O)c(c5c(nc6cc(C)ccn65)c4c3C2=O)NC(=O)/C(C)=C\C=C\[C@H](C)[C@H](O)[C@@H](C)[C@@H](O)[C@@H](C)[C@H](OC(C)=O)[C@@H]1C [polymorph ?, rifaximin]
- reduction of bioavailability compared to the form δ: twenty
